Experimental data: patent US20250296938A1, “Compounds that Interact with the Ras Superfamily for the Treatment of Cancers, Inflammatory Diseases, Rasopathies, and Fibrotic Disease” (SHY Therapeutics, LLC, priority 2018, published 2025)

System: MIA PaCa-2 pancreatic cancer cell line
Assay: Cell proliferation assay (DAPI)
Format: cell-based
Conditions: Homo sapiens, MIA PaCa-2 (Table 5A); for inhibition at 10 µM: read-out: % Inhibition of cell proliferation, MIA PaCa-2 % inh
Method: Cell lines: Human NSCLC cells NCI-H1975 and NCI-H1299, and tumor-derived pancreatic cancer cell lines Panc-1, MIA-PACA2, and BxPC3, were all purchased from American Type Culture Collection and grown in complete RPMI medium (BxPC3, NCI-H1975 and NCI-H1299) or DMEM-High Glucose (Panc1 and MIA-PaCa-2), supplemented with penicillin (100 U/mL), streptomycin (100 μg/mL), and 10% heat-inactivated FBS at 37° C. in a humidified incubator with 5% CO2.
Method: Cells were plated at 2000 to 5000 cells/well density in 96-wells plate and cultured ON. Small molecules to be tested were added to the cells in the final concentration of 10 µM in the presence of 0.3% DMSO and 10% FBS, and incubated for 2-4 days at 37° C. in a humidified incubator with 5% CO2. For IC50 value determination, serial dilutions of compounds were added to cells under the same conditions.
Assay: At the end of the incubation period, cell cultures were fixed with a 50-50 mixture (v/v) acetone-methanol for 10 minutes at −20° C., followed by rehydration in PBS for 10 minutes at room temperature. DNA total content was determined by staining cells with DAPI (1 ug/ml) in PBS for 10 minutes at room temperature, followed by 3 washes with PBS. After staining, DAPI fluorescence was recorded (358 nm excitation/461 nm emission) with the 96-well plate reader Molecular Devices Spectramax M3; degree of small molecule-dependent proliferation inhibition was calculated from raw data.

`COc1c(O)nc(-c2ccccn2)nc1Oc1ccc(C(=O)N(C)C)cc1` [drawing 614] was tested, and the inhibition at 10 µM was 1 to 25%.

In the case of `COc1c(O)nc(-c2ccccn2)nc1Nc1ccccc1` [drawing 615], the inhibition at 10 µM is reported as 76 to 100% and the IC50 is reported as over 1000 nM.

Work on `CCn1cc(Nc2nc(-c3ccccn3)nc(O)c2OC)cn1` [drawing 616] yielded an inhibition at 10 µM of 0% and an IC50 of over 1000 nM.

For `CCOc1cccc(Nc2nc(-c3ccccn3)nc(O)c2OC)c1` [drawing 617], the inhibition at 10 µM was 76 to 100% and the IC50 was over 1000 nM.

For `COc1cccc(-c2sc3nc(-c4nccn4C)nc(NC4CCC(OC)C4)c3c2-c2ccccc2)c1F` (centres unmarked) [drawing 618], the inhibition at 10 µM was 76 to 100% and the IC50 was 750 to 1000 nM.

Work on `COc1cccc(-c2sc3nc(-c4nccn4C)nc(N[C@@H]4CC[C@H](OC)C4)c3c2-c2ccccc2)c1F` [drawing 619] yielded an inhibition at 10 µM of 76 to 100% and an IC50 of 750 to 1000 nM.

`COC1CCC(Nc2nc(-c3nccn3C)nc3sc(-c4cccc(O)c4F)c(-c4ccccc4)c23)C1` (centres unmarked) [drawing 620] gave an inhibition at 10 µM of 76 to 100% and an IC50 of over 1000 nM.

`COc1c(F)cccc1-c1sc2nc(-c3nccn3C)nc(NC3CCC(OC)C3)c2c1-c1ccccc1` (centres unmarked) [drawing 621] was tested, and the inhibition at 10 µM was 76 to 100% and the IC50 was 750 to 1000 nM.

With `COc1c(F)cccc1-c1sc2nc(-c3nccn3C)nc(N[C@@H]3CC[C@H](OC)C3)c2c1-c1ccccc1` [drawing 622] the inhibition at 10 µM was 76 to 100% and the IC50 was 750 to 1000 nM.

Work on `COC1CCC(Nc2nc(-c3nccn3C)nc3sc(-c4cccc5[nH]ncc45)c(-c4ccccc4)c23)C1` (centres unmarked) [drawing 623] yielded an inhibition at 10 µM of 76 to 100% and an IC50 of 750 to 1000 nM.

For `CO[C@H]1CC[C@@H](Nc2nc(-c3nccn3C)nc3sc(-c4cccc5[nH]ncc45)c(-c4ccccc4)c23)C1` [drawing 624], the inhibition at 10 µM was 76 to 100% and the IC50 was 750 to 1000 nM.

In the case of `COC1CCN(c2nc(-c3nccn3C)nc3sc(-c4cccc(O)c4F)c(-c4ccccc4)c23)C1` (centres unmarked) [drawing 625], the inhibition at 10 µM is reported as 76 to 100% and the IC50 is reported as over 1000 nM.

`COc1cccc(-c2sc3nc(-c4nccn4C)nc(N[C@H]4C[C@@H](OC)C4)c3c2-c2ccccc2)c1F` [drawing 626] was tested, and the inhibition at 10 µM was 76 to 100% and the IC50 was 500 to 749 nM.

`CO[C@H]1C[C@@H](Nc2nc(-c3nccn3C)nc3sc(-c4cnn(C)c4)c(-c4ccccc4)c23)C1` [drawing 627] gave an inhibition at 10 µM of 76 to 100% and an IC50 of 750 to 1000 nM.

With `COc1cccc(-c2sc3nc(-c4nccn4C)nc(NC4CCC(OC)C4)c3c2C)c1F` (centres unmarked) [drawing 628] the inhibition at 10 µM was 76 to 100% and the IC50 was 750 to 1000 nM.

Compound `COc1cccc(-c2sc3nc(-c4nccn4C)nc(N[C@@H]4CC[C@H](OC)C4)c3c2C)c1F` [drawing 629] has an inhibition at 10 µM of 76 to 100% and an IC50 of 750 to 1000 nM.

Compound `COC1CCC(Nc2nc(-c3nccn3C)nc3sc(-c4cccc5[nH]ncc45)c(C)c23)C1` (centres unmarked) [drawing 630] has an inhibition at 10 µM of 76 to 100% and an IC50 of over 1000 nM.

In the case of `COc1cccc(-c2sc3nc(-c4nc(C)cn4C)nc(N[C@@H]4CC[C@H](OC)C4)c3c2C)c1F` [drawing 631], the inhibition at 10 µM is reported as 76 to 100% and the IC50 is reported as 750 to 1000 nM.

Work on `CO[C@H]1CC[C@@H](Nc2nc(-c3nc(C)cn3C)nc3sc(-c4cccc5[nH]ncc45)c(C)c23)C1` [drawing 632] yielded an inhibition at 10 µM of 76 to 100% and an IC50 of over 1000 nM.

Compound `COCCn1ccnc1-c1nc(O)c2scc(-c3ccc(OCC(C)C)nc3)c2n1` [drawing 633] has an inhibition at 10 µM of 76 to 100% and an IC50 of under 500 nM.

`CC(C)COc1ccc(-c2csc3c(O)nc(-c4nccn4Cc4ccccn4)nc23)cn1` [drawing 634] gave an inhibition at 10 µM of 76 to 100% and an IC50 of 500 to 749 nM.

In the case of `COc1cccc(Cn2ccnc2-c2nc(O)c3scc(-c4ccc(OCC(C)C)nc4)c3n2)c1` [drawing 635], the inhibition at 10 µM is reported as 76 to 100% and the IC50 is reported as under 500 nM.

For `CO[C@H]1CC[C@@H](Nc2nc(-c3nccn3C)nc(C(=O)N3CCc4c(O)cccc4C3)c2C)C1` [drawing 636], the inhibition at 10 µM was 1 to 25% and the IC50 was over 1000 nM.

With `CO[C@H]1C[C@@H](Nc2nc(-c3ccccn3)nc3sccc23)C1` [drawing 637] the inhibition at 10 µM was 1 to 25% and the IC50 was over 1000 nM.

Compound `CO[C@H]1C[C@@H](Nc2nc(-c3nccn3C)nc3sccc23)C1` [drawing 638] has an inhibition at 10 µM of 26 to 50% and an IC50 of over 1000 nM.

`Cn1ccc(-c2sc3nc(-c4nccn4C)nc(O)c3c2-c2ccccc2)n1` [drawing 639] showed an inhibition at 10 µM of 76 to 100% and an IC50 of over 1000 nM.

Work on `CO[C@H]1C[C@@H](Nc2nc(-c3nccn3C)nc3sc(-c4ccn(C)n4)c(-c4ccccc4)c23)C1` [drawing 640] yielded an inhibition at 10 µM of 76 to 100% and an IC50 of over 1000 nM.

`CO[C@H]1C[C@H](Nc2nc(-c3nccn3C)nc3sc(-c4ccn(C)n4)c(-c4ccccc4)c23)C1` [drawing 641] gave an inhibition at 10 µM of 76 to 100% and an IC50 of over 1000 nM.

`CN(C)CCOCCNc1nc(-c2nccn2C)nc2sc(-c3ccn(C)n3)c(-c3ccccc3)c12` [drawing 642] showed an inhibition at 10 µM of 76 to 100% and an IC50 of over 1000 nM.

`Cn1ccc(-c2sc3nc(-c4nccn4C)nc(N[C@H]4C[C@@H](O)C4)c3c2-c2ccccc2)n1` [drawing 643] was tested, and the inhibition at 10 µM was 0% and the IC50 was over 1000 nM.

`CO[C@H]1C[C@@H](Nc2nc(-c3ncc[nH]3)nc3sc(-c4ccn(C)n4)c(-c4ccccc4)c23)C1` [drawing 645] showed an inhibition at 10 µM of 76 to 100% and an IC50 of 750 to 1000 nM.

`CO[C@H]1CC[C@@H](Nc2nc(-c3ncc[nH]3)nc3sc(-c4ccn(C)n4)c(-c4ccccc4)c23)C1` [drawing 646] gave an inhibition at 10 µM of 76 to 100% and an IC50 of 750 to 1000 nM.

`CO[C@H]1CC[C@@H](Nc2nc(-c3nccn3C)nc3sc(-c4ccn(C(C)C)n4)c(-c4ccccc4)c23)C1` [drawing 647] gave an inhibition at 10 µM of 76 to 100% and an IC50 of 500 to 749 nM.

With `COc1nc(-c2ccccn2)nc2c(-c3ccccn3)csc12` [drawing 648] the inhibition at 10 µM was 51 to 75% and the IC50 was over 1000 nM.

`CO[C@H]1C[C@@H](Nc2nc(-c3nccn3C)nc3sc(-c4ccn(C)n4)c(C)c23)C1` [drawing 649] gave an inhibition at 10 µM of 76 to 100% and an IC50 of over 1000 nM.

`CO[C@H]1CC[C@@H](Nc2nc(-c3nccn3C)nc3sc(-c4ccn(C)n4)c(C)c23)C1` [drawing 650] gave an inhibition at 10 µM of 76 to 100% and an IC50 of 750 to 1000 nM.

Compound `Cc1c(-c2ccn(C)n2)sc2nc(-c3nccn3C)nc(NCCCS(C)(=O)=O)c12` [drawing 651] has an inhibition at 10 µM of 0% and an IC50 of over 1000 nM.

For `Cc1c(-c2ccn(C)n2)sc2nc(-c3nccn3C)nc(NCCCC(=O)N(C)C)c12` [drawing 652], the inhibition at 10 µM was 0% and the IC50 was over 1000 nM.

`Cc1c(-c2ccn(C)n2)sc2nc(-c3nccn3C)nc(NCCOC(=O)N(C)C)c12` [drawing 653] showed an inhibition at 10 µM of 26 to 50% and an IC50 of over 1000 nM.

Work on `CO[C@H]1CC[C@@H](Nc2nc(-c3nccn3C)nc3sc(-c4ccn(C(C)C)n4)c(C)c23)C1` [drawing 654] yielded an inhibition at 10 µM of 76 to 100% and an IC50 of 500 to 749 nM.

`CO[C@H]1C[C@@H](Nc2nc(-c3nccn3C)nc3sc(C(=O)NC(C)C)c(-c4ccccc4)c23)C1` [drawing 655] showed an inhibition at 10 µM of 51 to 75% and an IC50 of over 1000 nM.

`COCCNC(=O)c1sc2nc(-c3nccn3C)nc(N[C@H]3C[C@@H](OC)C3)c2c1-c1ccccc1` [drawing 656] was tested, and the inhibition at 10 µM was 26 to 50% and the IC50 was over 1000 nM.

With `CO[C@H]1C[C@@H](Nc2nc(-c3nccn3C)nc3sc(C(=O)N4CCOCC4)c(-c4ccccc4)c23)C1` [drawing 657] the inhibition at 10 µM was 26 to 50% and the IC50 was over 1000 nM.

`COC1CCN(C(=O)c2sc3nc(-c4nccn4C)nc(N[C@H]4C[C@@H](OC)C4)c3c2-c2ccccc2)C1` (some centres unmarked) [drawing 658] gave an inhibition at 10 µM of 26 to 50% and an IC50 of over 1000 nM.

`CO[C@H]1CC[C@@H](Nc2nc(-c3nccn3C)nc3sc(C(=O)NC(C)C)c(-c4ccccc4)c23)C1` [drawing 659] showed an inhibition at 10 µM of 76 to 100% and an IC50 of over 1000 nM.

Work on `COCCNC(=O)c1sc2nc(-c3nccn3C)nc(N[C@@H]3CC[C@H](OC)C3)c2c1-c1ccccc1` [drawing 660] yielded an inhibition at 10 µM of 76 to 100% and an IC50 of over 1000 nM.

`CO[C@H]1CC[C@@H](Nc2nc(-c3nccn3C)nc3sc(C(=O)N4CCCC4)c(-c4ccccc4)c23)C1` [drawing 661] showed an inhibition at 10 µM of 76 to 100% and an IC50 of over 1000 nM.

In the case of `CO[C@H]1CC[C@@H](Nc2nc(-c3nccn3C)nc3sc(C(=O)N4CCOCC4)c(-c4ccccc4)c23)C1` [drawing 662], the inhibition at 10 µM is reported as 51 to 75% and the IC50 is reported as over 1000 nM.
